pKi: −log10 of the molar value. Where a name gives a salt, the structure may show the parent alone.

A word on the pKi: it is the Ki on a negative log10 scale, so that one unit is a factor of ten.

The assay deals with T1, human A2a receptor (Homo sapiens, UniProt P29274).
T1 construct: purchased Perkin-Elmer RBHA2AM400UA; host or cells: HEK293 cells, used as a membrane preparation
Description: A2a receptor competition binding assay (Scintillation Proximity). The settings on record: membranes from HEK293 cells expressing human A2a receptor; 0.5 nM tritiated ligand; Cheng-Prusoff; read-out: A2a Ki. As for the experimental part:
Binding affinities of compounds of the invention for the human A2a receptor were determined in a competition binding assay using Scintillation Proximity technology. Thus, 0.3 μg of membranes from HEK293 cells expressing the human A2a receptor were incubated with a compound of the invention at concentrations ranging from 3000 nM to 0.15 nM in a reaction mixture containing also 0.5 nM of a tritiated form of 5-amino-7-[2-phenethyl]-2-(furan-2-yl)-7H-pyrazolo[4,3-e][1,2,4]triazolo[1,5-c]pyrimidine (the tritiated compound) and 100 μg of wheat germ agglutin-coated yttrium silicate SPA beads for one hour at room temperature with agitation. The beads were then allowed to settle to the bottom of the wells for 1 hr, after which the membrane-associated radioactivity was determined by scintillation counting in a TopCount microplate reader. Ki values were determined using the Cheng-Prusoff equation.
Summary of Materials and Methods Used in A2a Activity Determination:
HEK293 cells expressing the human, rat, dog or monkey adenosine 2a receptor (Purchased from Perkin-Elmer #RBHA2AM400UA).
The Tritiated compound was prepared according to published methods.
Wheat germ agglutinin-coated yttrium silicate SPA beads (GE Healthcare #RPNQ0023). Dilute to 25 mg/ml in assay buffer.
Assay Buffer was prepared using Dulbecco's calcium and magnesium free phosphate buffered saline+10 mMMgCl2
Adenosine deaminase from calf intestine, 10 mg/2 ml (Roche #10 102 105 001).
A2a antagonist standard (9-chloro-1-(2-furanyl)-[1,2,4]triazolo1,5-c]quinazolin-5-amine from Tocris Bioscience)
Make eight 1:3 serial dilutions in 100% DMSO from a 3 mM compound stock
Transfer 50 nl of compound into a 384-well OptiPlate (Perkin Elmer).
Typically, final concentrations of compound used in the assay ranged from 3000 nM to 0.152 nM.
Dilute a solution of the Tritiated compound to 1.25 nM in assay buffer. This is a 2.5× solution. The final concentration in the assay is 0.5 nM. Calculate the concentration by counting two 5 μl aliquots.
Use 0.25 ug of membrane/well. Dilute membranes to 9.7 μg/ml in assay buffer. Treat with 20 ug/ml adenosine deaminase (ADA) for 15 minutes at room temperature to degrade endogenous adenosine.
Use 100 μg/well wheat germ agglutinin-coated yttrium silicate SPA beads.
Mix ADA-treated membranes and SPA beads together for 30 min prior to assay.
To the Perkin-Elmer Optiplate-384 containing the compound titration add 20 μl of 2.5× solution of the Tritiated compound and 30 μl of the membrane-bead mixture. Incubate for one hour at room temperature with agitation.
Include total binding (assay buffer+1% DMSO) and non-specific binding (CGS15943, 1 μM) wells.
Allow the beads to settle for one hour.
A curve fitting program (i.e., Prism, Activity Base, Chemcart) is used to determine the EC50. The Ki value is calculated using the Cheng-Prusoff equation. Ki=EC50/(1+(radioligand concentration/Kd))
A general note: SPA uses beads or plates that emit light when radiolabelled molecules are held near them.

T1 sequence (P29274 whole entry): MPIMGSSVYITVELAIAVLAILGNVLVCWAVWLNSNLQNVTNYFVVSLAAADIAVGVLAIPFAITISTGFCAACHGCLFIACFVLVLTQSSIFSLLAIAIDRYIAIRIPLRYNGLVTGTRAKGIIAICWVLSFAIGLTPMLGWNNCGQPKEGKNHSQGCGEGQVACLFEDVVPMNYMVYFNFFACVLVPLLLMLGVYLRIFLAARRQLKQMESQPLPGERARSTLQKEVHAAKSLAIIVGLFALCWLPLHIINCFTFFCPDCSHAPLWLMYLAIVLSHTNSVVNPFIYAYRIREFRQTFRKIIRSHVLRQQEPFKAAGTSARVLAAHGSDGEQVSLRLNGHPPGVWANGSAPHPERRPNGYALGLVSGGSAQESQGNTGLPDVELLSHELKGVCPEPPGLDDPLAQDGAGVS

Turning to `Nc1nc2c(F)cccc2c2nc(Cc3ccc(-c4ccc(F)cn4)cc3)cn12` [Ex-76, 7-fluoro-2-(4-(5-fluoropyridin-yl)benzyl)imidazo[1,2-c]quinazolin-5-amine], the pKi is 8.00.

`Nc1nc2c(F)cccc2c2nc(Cc3cccc(-c4ccc5nonc5c4)c3)cn12` [Ex-77, 2-(3-(benzo[c][1,2,5]oxadiazol-5-yl)benzyl)-7-fluoroimidazo[1,2-c]quinazolin-5-amine]: the negative-log Ki (pKi) is 7.92.

`COc1ccc(-c2ccc(Cc3cn4c(N)nc5c(F)cccc5c4n3)cc2)cc1` [Ex-78, 7-fluoro-2-((4′-methoxy-[1,1′-biphenyl]-4-yl)melhyl)imidazo[1,2-c]quinazolin-5-amine]: the negative-log Ki (pKi) is 6.92.

Take `COc1cccc2c1nc(N)n1cc(Cc3c(F)cccc3-c3ccc(C(F)(F)F)nc3)nc21` [Ex-79, 2-(2-fluoro-6-(6-(trifluoromethyl)pyridin-3-yl)benzyl)-7-methoxyimidazo[1,2-c]quinazolin-5-amine]: the negative logarithm of the Ki (pKi) is 8.62.

As for `COc1cccc2c1nc(N)n1cc(Cc3cccnc3-c3cncnc3)nc21` [Ex-80, 7-methoxy-2-((2-(pyrimidin-5-yl)pyridin-3-yl)methyl)imidazo[1,2-c]quinazolin-5-amine], the negative logarithm of the Ki (pKi) was 7.96.

For `Nc1nc2c(F)cccc2c2nc(Cc3cc(F)ccc3-c3cncnc3)cn12` [Ex-81, 7-fluoro-2-(5-fluoro-2-(pyrimidin-5-yl)benzyl)imidazo[1,2-c]quinazolin-5-amine], the negative logarithm of the Ki (pKi) is 7.85.

`Nc1nc2c(F)cccc2c2nc(Cc3ccc(-c4cnccn4)cc3)cn12` [Ex-82, 7-fluoro-2-(4-(pyrazin-2-yl)benzyl)imidazo[1,2-c]quinazolin-5-amine]: the negative logarithm of the Ki (pKi) is 7.57.

For `Nc1nc2c(F)cccc2c2nc(Cc3cc(F)ccc3-c3ccnc(N4CCOCC4)c3)cn12` [Ex-83], the pKi was 8.16.

With `Nc1nc2c(F)cccc2c2nc(Cc3ccc(C(=O)Nc4ccccn4)cc3)cn12` [Ex-84, 4-((5-amino-7-fluoroimidazo[1,2-c]quinazolin-2-yl)methyl)-N-(pyridin-2-yl)benzamide], the pKi was 8.42.

Regarding `Nc1nc2c(F)cccc2c2nc(Cc3cccc(C(=O)Nc4ccccn4)c3)cn12` [Ex-85, 3-((5-amino-7-fluoroimidazo[1,2-c]quinazolin-2-yl)methyl)-N-(pyridin-2-yl)benzamide], the pKi is 8.01.

On to `Cn1c(NC(=O)c2ccc(Cc3cn4c(N)nc5c(F)cccc5c4n3)cc2)nc2ccccc21` [Ex-86, 5-amino-7-fluoro-2-(4-((1-methyl-1H-benzo[d]imidazol-2-yl)carbamoyl)benzyl)imidazo[1,2-c]quinazolin-6-ium formate], for which the pKi was 7.36.

Take `Nc1nc2c(F)cccc2c2nc(Cc3ccc(C(=O)NC4(c5ccccc5)CC4)cc3)cn12` [Ex-87, 4-((5-amino-7-fluoroimidazo[1,2-c]quinazolin-2-yl)methyl)-N-(1-phenylcyclopropyl)benzamide]: the pKi was 7.40.

As to `Nc1nc2c(F)cccc2c2nc(Cc3ccc(C(=O)NCC(c4cccnc4)N4CCOCC4)cc3)cn12` (stereo not drawn) [Ex-88, 4-((5-amino-7-fluoroimidazo[1,2-c]quinazolin-2-yl)methyl)-N-(2-morpholino-2-(pyridin-3-yl)ethyl)benzamide], the negative logarithm of the Ki (pKi) is 7.08.

Take `COc1cccc2c1nc(N)n1cc(Cc3ccc(C(=O)Nc4ccccc4)cc3)nc21` [Ex-89, 4-((5-amino-7-methoxyimidazo[1,2-c]quinazolin-2-yl)methyl)-N-phenylbenzamide]: the pKi is 8.20.

Consider `Nc1nc2c(F)cccc2c2nc(Cc3ccc(C(=O)NCCN4CCOCC4)cc3)cn12` [Ex-90, 4-((5-amino-7-fluoroimidazo[1,2-c]quinazolin-2-yl)methyl)-N-(2-morpholinoethyl)benzamide], for which the pKi is 7.18.

`Nc1nc2c(F)cccc2c2nc(Cc3ccc(-c4nnc(CN5CCOCC5)o4)cc3)cn12` [Ex-91, 7-fluoro-2-(4-(5-(morpholinomethyl)-1,3,4-oxadiazol-2-yl)benzyl)imidazo[1,2-c]quinazolin-5-amine]: the pKi is 7.19.

On to `Nc1nc2c(F)cccc2c2nc(Cc3cccc4c3OCCN4C(=O)Cc3ccccn3)cn12` [Ex-92, 1-(8-((5-amino-7-fluoroimidazo[1,2-c]quinazolin-2-yl)methyl)-2,3-dihydro-4H-benzo[b][1,4]oxazin-4-yl)-2-(pyridin-2-yl)ethan-1-one], for which the pKi is 7.89.

Regarding `COc1ccc(-c2cn(Cc3cn4c(N)nc5c(OC)cccc5c4n3)nn2)cc1` [Ex-93, 7-methoxy-2-((4-(4-methoxyphenyl)-1H-1,2,3-triazol-1-yl)methyl)imidazo[1,2-c]quinazolin-5-amine], the pKi was 8.60.

With `Nc1nc2c(F)cccc2c2nc(Cn3cc(-c4cc(C(F)(F)F)cc(C(F)(F)F)c4)nn3)cn12` [Ex-94, 2-((4-(3,5-bis(trifluoromethyl)phenyl)-1H-1,2,3-triazol-1-yl)methyl)-7-fluoroimidazo[1,2-c]quinazolin-5-amine], the negative-log Ki (pKi) was 6.82.

Turning to `Nc1nc2c(F)cccc2c2nc(Cn3cc(-c4ccc(OC(F)(F)F)cc4)nn3)cn12` [Ex-95, 7-fluoro-2-((4-(4-(trifluoromethoxy)-phenyl)-1H-1,2,3-triazol-1-yl)methyl)-imidazo[1,2-c]-quinazolin-5-amine], the negative-log Ki (pKi) is 8.17.

Consider `Nc1nc2c(F)cccc2c2nc(Cn3cc(-c4cccnc4)nn3)cn12` [Ex-96, 7-fluoro-2-((4-(pyridin-3-yl)-1H-1,2,3-triazol-1-yl)methyl)imidazo[1,2-c]quinazolin-5-amine], for which the pKi was 7.44.

Turning to `COc1ccc(N2CCN(CCc3cn(Cc4cn5c(N)nc6c(F)cccc6c5n4)nn3)CC2)cc1` [Ex-97, 7-fluoro-2-((4-(2-(4-(4-methoxyphenyl)piperazin-1-yl)ethyl)-1H-1,2,3-triazol-1-yl)methyl)imidazo[1,2-c]quinazolin-5-amine], the pKi is 7.02.

Take `Nc1nc2c(F)cccc2c2nc(Cn3cc(-c4ccc(-c5cccnc5)cc4)nn3)cn12` [Ex-98, 7-fluoro-2-((4-(4-(pyridin-3-yl)phenyl)-1H-1,2,3-triazol-1-yl)methyl)imidazo[1,2-c)quinazolin-5-amine]: the pKi is 8.17.

`COc1cccc2c1nc(N)n1cc(Cn3cc(COC(C)=O)nn3)nc21` [Ex-99, (1-((5-amino-7-methoxyimidazo[1,2-c]quinazolin-2-yl)methyl)-1H-1,2,3-triazol-4-yl)methyl acetate]: the negative logarithm of the Ki (pKi) was 7.95.

In the case of `Nc1nc2c(F)cccc2c2nc(CCc3ccccc3)cn12` [Ex-100, 7-fluoro-2-phenethylimidazo[1,2-c]quinazolin-5-amine], the negative-log Ki (pKi) is 8.36.

In the case of `Nc1nc2c(F)cccc2c2nc(CCc3ccccn3)cn12` [Ex-101, 7-fluoro-2-(2-(pyridin-2-yl)ethyl)imidazo[1,2-c]quinazolin-5-amine], the negative logarithm of the Ki (pKi) was 8.07.

Regarding `COc1cccc2c1nc(N)n1cc(CCc3ccccc3)nc21` [Ex-102, 7-methoxy-2-phenethylimidazo[1,2-c]quinazolin-5-amine], the pKi is 8.42.

Turning to `COc1cccc2c1nc(N)n1cc(C(=O)c3ccccc3)nc21` [Ex-103, (5-amino-7-methoxyimidazo[1,2-c]quinazolin-2-yl)(phenyl)methanone], the pKi was 7.58.

In the case of `Nc1nc2ccccc2c2nc(-c3ccc(Br)cc3)cn12` [Ex-104, 2-(4-bromophenyl)imidazo[1,2-c]quinazolin-5-amine], the negative logarithm of the Ki (pKi) is 6.39.

Turning to `Nc1nc2ccccc2c2nc(-c3cccc(Br)c3)cn12` [Ex-105, 2-(3-bromophenyl)imidazo[1,2-c]quinazolin-5-amine], the pKi is 6.80.

For `Nc1nc2c(F)cccc2c2nc(-c3ccccc3)cn12` [Ex-106, 7-fluoro-2-phenylimidazo[1,2-c]quinazolin-5-amine], the pKi is 8.15.

Regarding `Nc1nc2c(F)cccc2c2nc(-c3ccccc3CO)cn12` [Ex-107, (2-(5-amino-7-fluoroimidazo[1,2-c]quinazolin-2-yl)phenyl)methanol], the pKi was 8.37.

On to `CS(=O)(=O)Nc1nc2c(F)cccc2c2nc(-c3ccccc3CN3CCN(c4ccccn4)CC3)cn12` [Ex-108, N-(7-fluoro-2-(2-((4-(pyridin-2-yl)piperazin-1-yl)methyl)-phenyl)-imidazo[1,2-c]-quinazolin-5-yl)-methanesulfonamide], for which the negative logarithm of the Ki (pKi) is 6.89.

The record behind these values is patent US11498923B2 (Merck Sharp & Dohme Corp., priority 2017, dated 2022).
